From EP0361954A2, “CRF Analogs” (THE SALK INSTITUTE FOR BIOLOGICAL STUDIES, priority 1988, dated 1990)
Non-standard residues stand in square brackets, D forms with d. Nle = CCCC[C@H](N)C(=O)O; Nva = CCC[C@H](N)C(=O)O

What was measured:
[1] = In vivo testing (general procedure of C. Rivier et al., Science, 218, 377 (1982)): duration of potency and blood pressure; settings: for lowering of blood pressure: general procedure of Example III
Experimental: (§1) The synthetic peptide [D-Glu²⁰]-oCRF is examined for its effects on the secretion of ACTH and β-endorphin in vitro and was also in vivo. The potency of synthetic [D-Glu²⁰]-oCRF to stimulate the secretion of ACTH and β-endorphin by cultured rat pituitary cells is measured using the procedure as generally set forth in Endocrinology, 91, 562 (1972) and compared against synthetic oCRF. […] In vivo testing is carried out using the general procedure set forth in C.

[2] = system: cultured rat pituitary cells; assay: Secretion of ACTH and β-endorphin by cultured rat pituitary cells (procedure of Endocrinology, 91, 562 (1972)); format: cell-based; settings: for stimulation of the secretion of ACTH and β-END-LI: testing by the general procedure of Example III; for EC50: stimulation of secretion of ACTH and β-endorphin, cultured rat pituitary cells, read-out: Half-maximal responses (concentration of the peptide)
Experimental: as §1

Compound | lowering of blood pressure [1] | stimulation of the secretion of ACTH and β-END-LI [2] | further results
H-SQEPPISLDLT[dF]ELLREMLEIAKAEQEAEQAALNRKYLEEV-NH2 | very significant lowering of blood pressure | stimulates the secretion of ACTH and β-END-LI | 
For-Ser-GlU-GlU-Pro-Pro-Ile-Ser-Leu-Asp-Leu-Thr-D-Phe-His-Leu-Leu-Arg-Glu-Val-Leu-Glu-Nle-Ala-Arg-Ala-Glu-Gln-Leu-Ala-Gln-Gln-Ala-D-His-Ser-Asn-Arg-Lys-Leu-Nle-Glu-Ile-Ile-NH₂ | very significant lowering of blood pressure | stimulates the secretion of ACTH and β-END-LI | 
H-SQ[dY]PPISLDLTFHLLRE[Nle]L[dE][Nva]AK[dA]EQEAEQAALNRLLLEEA-NH2 | very significant lowering of blood pressure | stimulates the secretion of ACTH and β-END-LI | 
Acr-Glu-Glu-Pro-Pro-Ile-Ser-Leu-Asp-Leu-Thr-D-Phe-His-Leu-Leu-Arg-Glu-Val-Leu-Glu-Nle-Ala-Arg-Ala-Glu-Gln-Leu-Ala-Gln-Gln-Ala-D-His-Ser-Asn-Arg-Lys-Leu-NIe-Glu-Ile-Ile-NH₂ | very significant lowering of blood pressure | stimulates the secretion of ACTH and β-END-LI | 
H-SQEPPISLDLT[dF]HLLRE[Nle]LE[Nle]AK[dA]EQEAEQAALNRLLLEEA-NH2 [[D-Phe¹², Nle^18,21, D-Ala²⁴]-AHC] | very significant lowering of blood pressure | stimulates the secretion of ACTH and β-END-LI | 
CC[C@H](C)[C@H](NC(=O)[C@H](CC(=O)O)NC(=O)[C@H](CC(C)C)NC(=O)[C@H](CC(C)C)NC(=O)[C@H](CCCCN)NC(=O)[C@H](CCCNC(=N)N)NC(=O)[C@H](CC(N)=O)NC(=O)[C@H](CO)NC(=O)[C@H](Cc1c[nH]cn1)NC(=O)[C@H](C)NC(=O)[C@H](CCC(N)=O)NC(=O)[C@H](CCC(N)=O)NC(=O)[C@H](C)NC(=O)[C@H](CC(C)C)NC(=O)[C@H](CCC(N)=O)NC(=O)[C@H](CC(=O)O)NC(=O)[C@H](C)NC(=O)[C@H](CCCCN)NC(=O)[C@@H](NC(=O)[C@H](CCSC)NC(=O)[C@@H](CCC(=O)O)NC(=O)[C@H](CC(C)C)NC(=O)[C@@H](NC(=O)[C@H](CCC(=O)O)NC(=O)[C@H](CCCNC(=N)N)NC(=O)[C@H](CC(C)C)NC(=O)[C@H](CC(C)C)NC(=O)[C@H](Cc1c[nH]cn1)NC(=O)[C@H](Cc1ccccc1)NC(=O)[C@@H](NC(=O)[C@H](CC(C)C)NC(=O)[C@H](CC(=O)O)NC(=O)[C@H](CC(C)C)NC(=O)[C@H](CO)NC(=O)[C@@H](NC(=O)[C@@H]1CCCN1C(=O)[C@@H]1CCCN1C(=O)[C@H](CCC(=O)O)NC(=O)[C@H](CCC(N)=O)NC(=O)[C@@H](N)CO)[C@@H](C)CC)[C@@H](C)O)C(C)C)[C@@H](C)O)C(=O)N[C@@H](C)C(N)=O [[D-Glu²⁰]-oCRF] | significant lowering of blood pressure |  | duration of potency [1]: longer duration of potency; potency compared with the native hormone ([2]; in vitro, compared against synthetic oCRF / native peptides): about twice as potent as the native hormone; secretory response to maximal concentrations ([2]; maximal (1-5 nM) concentrations): at a plateau level; EC50 [2]: ~0.17 nM
H-Ser-Glu-Glu-pro-pro-lle-Ser-Leu-Asp-Leu-Thr-D-Phe-Glu-Leu-Leu-Arg-Glu-Nle-Leu-Glu-Met-Glu-Orn-Ala-Glu-Lys-Glu-Ala-Glu-Gln-Ala-Ala-Leu-Asn-Arg-Leu-Leu-Leu-Glu-Glu-Ala-NH₂ [[Glu^2,13,22 D-Phe¹², Nle¹⁸, Orn²³]-AHC] | very significant lowering of blood pressure | stimulates the secretion of ACTH and β-END-LI | 
H-SQEPPISLDLTFHLLREVL[dE][Nle]TK[dA]DQLAQQAHSNRKL[Nle]DIA-NH2 [[D-Glu²⁰, D-Ala²⁴, Nle^21,38]-oCRF] | very significant lowering of blood pressure |  | 
H-SQEPPISLDLTFHLLRE[Nle]L[dE][Nle]AKAEQEAEQA[dH]LNRLLLEEA-NH2 [[Nle^18,21, D-Glu²⁰, D-His³²]-AHC] | very significant lowering of blood pressure | stimulates the secretion of ACTH and β-END-LI | 
CCCC[C@H](NC(=O)[C@@H](CCC(=O)O)NC(=O)[C@H](CC(C)C)NC(=O)[C@@H](NC(=O)[C@H](CCC(=O)O)NC(=O)[C@H](CCCNC(=N)N)NC(=O)[C@H](CC(C)C)NC(=O)[C@H](CC(C)C)NC(=O)[C@H](Cc1c[nH]cn1)NC(=O)[C@H](Cc1ccccc1)NC(=O)[C@@H](NC(=O)[C@H](CC(C)C)NC(=O)[C@H](CC(=O)O)NC(=O)[C@H](CC(C)C)NC(=O)[C@H](CO)NC(=O)[C@@H](NC(=O)[C@@H]1CCCN1C(=O)[C@@H]1CCCN1C(=O)[C@H](CCC(=O)O)NC(=O)[C@H](CCC(N)=O)NC(=O)[C@@H](N)CO)[C@@H](C)CC)[C@@H](C)O)C(C)C)C(=O)N[C@H](C(=O)N[C@@H](CCCCN)C(=O)N[C@@H](C)C(=O)N[C@@H](CC(=O)O)C(=O)N[C@@H](CCC(N)=O)C(=O)N[C@@H](CC(C)C)C(=O)N[C@@H](C)C(=O)N[C@@H](CCC(N)=O)C(=O)N[C@@H](CCC(N)=O)C(=O)N[C@@H](C)C(=O)N[C@H](Cc1c[nH]cn1)C(=O)N[C@@H](CO)C(=O)N[C@@H](CC(N)=O)C(=O)N[C@@H](CCCNC(=N)N)C(=O)N[C@@H](CCCCN)C(=O)N[C@@H](CC(C)C)C(=O)N[C@@H](CC(C)C)C(=O)N[C@@H](CC(=O)O)C(=O)N[C@H](C(=O)N[C@@H](C)C(N)=O)[C@@H](C)CC)[C@@H](C)O [[D-Glu²⁰, Nle²¹, D-His³²]-oCRF] | very significant lowering of blood pressure |  | 
H-SQE[dP]PISLDLT[dF]HLLRE[Nle]LE[Nle]AKAEQEAEQAAINRNLLEEA-NH2 | very significant lowering of blood pressure | stimulates the secretion of ACTH and β-END-LI | 
CC[C@H](C)[C@H](NC(=O)[C@@H](NC(=O)[C@H](CC(=O)O)NC(=O)[C@H](CC(C)C)NC(=O)[C@H](CC(C)C)NC(=O)[C@H](CC(C)C)NC(=O)[C@H](CCCNC(=N)N)NC(=O)[C@H](CC(N)=O)NC(=O)[C@H](CC(N)=O)NC(=O)[C@H](C)NC(=O)[C@H](C)NC(=O)[C@H](CCC(N)=O)NC(=O)[C@H](CCC(=O)O)NC(=O)[C@H](CCCCN)NC(=O)[C@H](CCC(=O)O)NC(=O)[C@H](CCCCN)NC(=O)[C@H](CCC(=O)O)NC(=O)[C@H](CCC(N)=O)NC(=O)[C@H](CCCCN)NC(=O)[C@H](CCCNC(=N)N)NC(=O)[C@H](C)NC(=O)[C@@H](CCC(=O)O)NC(=O)[C@@H](NC(=O)[C@H](CCSC)NC(=O)[C@H](CCCCN)NC(=O)[C@H](CCCNC(=N)N)NC(=O)[C@H](CC(C)C)NC(=O)[C@H](CC(C)C)NC(=O)[C@H](CCC(=O)O)NC(=O)[C@@H](Cc1ccccc1)NC(=O)[C@H](CO)NC(=O)[C@H](CC(C)C)NC(=O)[C@H](CC(=O)O)NC(=O)[C@@H](NC(=O)[C@H](CO)NC(=O)[C@@H](NC(=O)[C@@H]1CCCN1C(=O)[C@@H]1CCCN1C(=O)CNC(=O)[C@@H]1CCC(=O)N1)[C@@H](C)CC)[C@@H](C)CC)[C@@H](C)CC)[C@@H](C)CC)C(N)=O | very significant lowering of blood pressure | stimulates the secretion of ACTH and β-END-LI | 
H-Ser-Gln-GluU-Pro-Pro-Ile-Ser-Leu-Asp-Leu-Thr-D-Phe-His-Leu-Leu-Arg-Glu-Val-Leu-Glu-Nle-Thr-Lys-Ala-Asp-Gln-Leu-Ala-Gln-Gln-Ala-His-Ser-Asn-Arg-Lys-Leu-Leu-Asp-Ile-Ala-NH₂ [[D-phe¹², Nle²¹ -oCRF] | very significant lowering of blood pressure | stimulates the secretion of ACTH and β-END-LI | 
H-SQEPPISLDLT[dF]HLLREML[dE]RAKAEQEAEQAALNRLLLEEA-NH2 [[D-Phe¹², D-Glu²⁰, Arg²¹]-AHC] | very significant lowering of blood pressure | stimulates the secretion of ACTH and β-END-LI | 
H-SQEPPISLDLTFHLREVL[dE][Nle]TKADQLAQQAHSNRKLLDIA-NH2 [[D-Glu²⁰, Nle²¹]-oCRF] | very significant lowering of blood pressure | stimulates the secretion of ACTH and β-END-LI | 
H-GlU-Pro-Pro-Ile-Ser-Leu-Asp-Leu-Thr-D-Phe-His-Leu-Leu-Arg-Glu-Val-Leu-D-GlU-Met-Ala-Arg-Ala-Glu-Gln-Leu-Ala-Gln-Gln-Ala-His-Ser-Asn-Arg-Lys-Leu-Met-Glu-Ile-Ile-NH₂ [[D-Phe¹², D-Glu²⁰]-rCRF(3-41)] | very significant lowering of blood pressure | stimulates the secretion of ACTH and β-END-LI | 
CC[C@H](C)[C@H](NC(=O)[C@H](CC(=O)O)NC(=O)[C@H](CC(C)C)NC(=O)[C@H](CC(C)C)NC(=O)[C@H](CCCCN)NC(=O)[C@H](CCCNC(=N)N)NC(=O)[C@H](CC(N)=O)NC(=O)[C@H](CO)NC(=O)[C@H](Cc1c[nH]cn1)NC(=O)[C@H](C)NC(=O)[C@H](CCC(N)=O)NC(=O)[C@H](CCC(N)=O)NC(=O)[C@H](C)NC(=O)[C@H](CC(C)C)NC(=O)[C@H](CCC(N)=O)NC(=O)[C@H](CC(=O)O)NC(=O)[C@H](C)NC(=O)[C@H](CCCCN)NC(=O)[C@@H](NC(=O)[C@H](CCSC)NC(=O)[C@H](CCC(=O)O)NC(=O)[C@H](CC(C)C)NC(=O)[C@@H](NC(=O)[C@H](CCC(=O)O)NC(=O)[C@H](CCCNC(=N)N)NC(=O)[C@H](CC(C)C)NC(=O)[C@H](CC(C)C)NC(=O)[C@H](Cc1c[nH]cn1)NC(=O)[C@H](Cc1ccccc1)NC(=O)[C@@H](NC(=O)[C@H](CC(C)C)NC(=O)[C@H](CC(=O)O)NC(=O)[C@H](CC(C)C)NC(=O)[C@H](CO)NC(=O)[C@@H](NC(=O)[C@@H]1CCCN1C(=O)[C@@H]1CCCN1C(=O)[C@H](CCC(=O)O)NC(=O)[C@H](CCC(N)=O)NC(=O)[C@@H](N)CO)[C@@H](C)CC)[C@@H](C)O)C(C)C)[C@@H](C)O)C(=O)N[C@@H](C)C(N)=O [oCRF, reference compound] |  |  | EC50 [2]: ~0.25 nM
